# US8354374B2, “Peptides having pharmacological activity for treating disorders associated with altered cell migration, such as cancer” (Pharmaphelix S.R.L., priority 2006, dated 2013)
# Square brackets hold non-standard residues; d marks the D form. Peptide text beside a SMILES is read from it. ξ: configuration not given here. ξαMeF = CC(N)(Cc1ccccc1)C(=O)O; Aib = CC(C)(N)C(=O)O
# Key:
# [1] = tested on: HUVEC cells (Human Umbilical Vein Endothelial Cells); experiment: In vitro neo-angiogenesis: VEGF-dependent tubule formation on matrigel; type: cell-based
# Protocol: The in vitro neo-angiogenesis tests were conducted by exploiting the ability of endothelial cells to form, in the presence of pro-angiogenic factors, cords which extend to form a network of microtubules on a layer of polymerised matrigel. For this type of assay, 5×10^4 HUVEC cells (Human Umbilical Vein Endothelial Cells) per well were plated in 24-well plates, in which 300 μl of matrigel was left to polymerise in the presence of 40 ng/ml of VEGF (Vascular Endothelial Growth Factor), used as pro-angiogenic agent, and the peptides indicated, at different concentrations. Tubule formation was evaluated after 18 hours' incubation at 37° C. in 5% CO2, by counting the number of tubular structures in at least 5 fields, chosen at random, with an inverted microscope. The effect of the peptides on VEGF-dependent tubule-forming activity is calculated as a percentage of the number of tubular structures counted in the presence of VEGF (taken as 100%). The data (Table 9) represent the average of two experiments conducted in duplicate. The antagonistic effect of PICM1 and PICM57 on neo-angiogenesis in vitro is dose-dependent. This effect begins at concentrations of aM and reaches the peak action at a concentration of pM (20% of the number of tubular structures counted); 50% of the maximum effect is reached at concentrations of fM. The anti-angiogenic effect exerted by 50 nM of endostatin and the low inhibitory effect exerted by metastin[45-54] are shown by way of comparison.
# [2] = tested on: murine melanoma B16 cells; settings: Ohtaki et al. 2001; cited from earlier work
# [3] = tested on: human fibrosarcoma HT1080 cells; experiment: In vitro cell invasion through matrigel towards 10% FBS (Boyden chamber); type: cell-based
# Protocol: The in vitro cell invasion tests were conducted with Boyden chambers, using polyvinylpyrrolidone free filters, having pores with a diameter of 8 μm (Nucleopore), coated with 70 μg/filter of matrigel and DMEM containing 10% FBS as chemoattractant (Silvestri et al. Int. J. Cancer 102, 562-571, 2002). Human fibrosarcoma HT1080 cells (2×10^5 cells/sample) were deposited in the upper compartment of the chamber in a serum-free culture medium. The lower compartment of the chamber contained DMEM with the addition of 10% FBS as chemotactic source, and the peptides to be assayed, tested at the concentration indicated. The chambers, thus assembled, were placed at 37° C. in a humidified environment containing 5% CO2. After 18 hrs, the cells which had crossed the matrigel and adhered to the lower surface of the filters were fixed, stained and counted. The data represent the average of two independent experiments conducted in duplicate. The results, set out in Table 8, are expressed as the percentage of cells that invade the matrigel in the presence of FBS, but in the absence of peptide (100%). The inhibiting effect of PICM1 and PICM57 on the invasiveness of HT1080 cells is dose-dependent.
# [4] = tested on: human fibrosarcoma HT1080 cells; experiment: Directional migration towards 10% FBS in Boyden chamber; type: cell-based
# Protocol: The effect of PICM57 described in example 3 on the cell migration of human fibrosarcoma HT1080 cells was tested. A Boyden chamber equipped with polycarbonate filters, having pores with a diameter of 8 μm (Nucleopore), free of polyvinylpyrrolidone and coated with 5 μg/ml of vitronectin (Promega), was used, as reported in the literature (Carriero et al., Cancer Res. 59, 5307, 1999). 3×10^4 cells, in serum-free DMEM (Dulbecco Modified Eagle Medium), were deposited in the upper compartment of the Boyden chamber. The lower chamber was packed with DMEM containing 10% FBS (Foetal Bovine Serum) as a source of chemotactics, in the presence of increasing concentrations of PICM57. The cells were incubated for 4 h at 37° C. in humidified air containing 5% CO2. After incubation, the cells adhering to the upper surface of the filter were mechanically removed, and the migrated cells adhering to the lower surface of the filter were fixed in ethanol, stained with haematoxylin, and counted at 200× in 10 fields/filter chosen at random. The directional migration in response to FBS in the absence of PICM57 was taken as 100% and the effect of PICM57 on cell migration was evaluated in percentage terms. The data represent the average of three independent experiments conducted in duplicate. The antagonistic effect of PICM57 on migration of HT1080 cells towards FBS is dose-dependent (Table 2). It begins at concentrations of 1 aM, reaches 50% of its maximum value at concentrations of 1 fM, and reaches the maximum effect at concentrations of 10 fM (66% of inhibition).
# The mobility induced by FBS in the presence of Metastin[45-54] was evaluated under the same experimental conditions (Table 3). […]
# [5] = tested on: Cell lines of human or murine origin, derived from various tissues; experiment: Directional migration towards 10% FBS, all the cell lines tested; type: cell-based; settings: 100 pM PICM1
# Protocol: Cell lines of human or murine origin, derived from various tissues, were subjected to in vitro directional migration tests employing Boyden chambers as described in example 4, and using 10% FBS as chemotactic source, in the presence/absence of 100 pM PICM1. Directional migration in response to FBS in the absence of PICM1 was taken as 100%, and the effect of PICM1 on cell migration was evaluated as a percentage of said value. The data represent the average of two independent experiments conducted in duplicate. In all the cell lines tested, an inhibiting effect of PICM1 on cell migration was observed (Table 4). Although the extent of the inhibition differs between the cell lines used, it was never less than 50%, and was also observed in murine melanoma B16 cells, which are unresponsive to Metastin (Ohtaki, T., et al. (2001) Nature 411, 613-617).
# [6] = tested on: human fibrosarcoma HT1080 cells in CD1 nude mice; experiment: Anti-metastatic effect in vivo: pulmonary metastasis of HT1080 cells injected into the caudal vein; settings: 3 mg/Kg every 48 h
# Protocol: The anti-metastatic power of PICM1 was evaluated on an animal model. 2×10^6 human fibrosarcoma HT1080 cells, which cause pulmonary metastasis in the experimental model (Schweinitz A, et al., J. Biol. Chem. 279:33613, 2004), were suspended in saline solution and injected into the caudal vein of twenty 7-week-old CD1 nude mice. 24 hours after the inoculation of the tumour cells, groups of 10 animals were treated with a slow injection of 3 mg/Kg of PICM1, dissolved in 100 μl of saline solution, every 48 h, with the animal immobilised. The 10 control animals received the same injection treatment, but with the saline solution only. Each animal was weighed and inspected for dyspnoea every day. […] All the treated and control animals were sacrificed, and an autopsy was conducted. The lungs, liver, kidneys, spleen and heart were subjected to macroscopic and microscopic analysis.
# [7] = tested on: mouse; settings: acute
# [8] = in vivo; settings: rat
# [9] = tested on: rat; settings: acute
# [10] = in vivo; settings: mouse
# [11] = target: T1, FPR (Homo sapiens, UniProt P21462); settings: cells pre-incubated with 10 μM peptide
# T1 sequence (P21462 1-350): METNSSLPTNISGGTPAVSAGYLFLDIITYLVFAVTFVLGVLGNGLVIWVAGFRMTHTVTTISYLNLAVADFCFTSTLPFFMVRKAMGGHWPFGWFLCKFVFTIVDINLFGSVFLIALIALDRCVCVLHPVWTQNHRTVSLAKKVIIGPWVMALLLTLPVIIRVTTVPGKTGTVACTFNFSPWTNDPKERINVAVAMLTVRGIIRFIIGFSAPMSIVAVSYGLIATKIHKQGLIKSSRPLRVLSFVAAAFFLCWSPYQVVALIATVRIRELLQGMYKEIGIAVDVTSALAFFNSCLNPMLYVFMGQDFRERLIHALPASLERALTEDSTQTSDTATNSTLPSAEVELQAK
# [12] = 10 pM peptide, 10% FBS alone = 100%
# [13] = 10 nM peptide, 10% FBS alone = 100%
# [14] = 1 aM peptide, migration toward 10% FBS alone = 100%
# [15] = 10 aM peptide, 10% FBS alone = 100%
# [16] = 10 fM peptide, 10% FBS alone = 100%
# [17] = injection, sacrifice after 22 days
compound,measurement,setting,value
Endostatin [reference compound],VEGF-dependent tubule-forming activity (%),[1]; 10 nM peptide,30%
Metastin,responsiveness of B16 cells,[2],unresponsive
"CC(=O)N[C@@H](CCCNC(=N)N)C(=O)N[C@@H](CCC(=O)O)C(=O)N[C@@H](CCCNC(=N)N)C(=O)N[C@@H](Cc1ccccc1)C(N)=O [PICM1, Ac-Arg-Glu-Arg-Phe-NH2] (Ac-RERF-NH2)",Cell invasion towards 10% FBS (%),[3]; 10 pM peptide,55%
same,Cell invasion towards 10% FBS (%),[3]; 10 nM peptide,44%
same,Cell invasion towards 10% FBS (%),"[3]; 1 aM peptide, FBS without peptide = 100%",100%
same,Cell invasion towards 10% FBS (%),[3]; 10 aM peptide,101%
same,Cell invasion towards 10% FBS (%),[3]; 10 fM peptide,62%
same,Cell Migration towards 10% FBS (%),[4]; [12],46%
same,Cell Migration towards 10% FBS (%),"[4]; 100 pM peptide, 10% FBS alone = 100%",34%
same,Cell Migration towards 10% FBS (%),[4]; [13],35%
same,Cell Migration towards 10% FBS (%),[4]; [14],99%
same,Cell Migration towards 10% FBS (%),[4]; [15],70%
same,Cell Migration towards 10% FBS (%),[4]; [16],56%
same,concentration at which 50% of the maximum effect on neo-angiogenesis is reached,[1],fM
same,VEGF-dependent tubule-forming activity (%),[1]; 10 pM peptide,30%
same,VEGF-dependent tubule-forming activity (%),[1]; 10 nM peptide,22%
same,VEGF-dependent tubule-forming activity (%),"[1]; 1 aM peptide, 40 ng/ml VEGF = 100%",104%
same,VEGF-dependent tubule-forming activity (%),[1]; 10 aM peptide,77%
same,VEGF-dependent tubule-forming activity (%),[1]; 10 fM peptide,65%
same,tubular structures at peak action (% of VEGF-only control),[1]; peak action at a concentration of pM,20%
same,extent of the inhibition of cell migration,[5],≥ 50%
same,extensive sub-pleural neoformations on macroscopic analysis of the lungs,[6]; [17],not observed in the treated animals
same,pulmonary metastasis on microscopic observation,[6]; [17],did not exhibit the presence of metastasis
same,"histo-morphological alterations of lungs, liver, kidneys, spleen and heart",[6]; autopsy,"None of the organs examined, of the controlled or treated animals, presented any histo-morphological alterations, with the exception of the lungs"
"CC(=O)N[C@@H](CCCNC(=N)N)C(=O)NC(C)(C)C(=O)N[C@@H](CCCNC(=N)N)C(=O)NC(C)(Cc1ccccc1)C(N)=O (stereo partly drawn) [PICM57, Ac-Arg-Aib-Arg-α(Me)Phe-NH2] (Ac-R[Aib]R[ξαMeF]-NH2)",dose with all animals alive,[7],28 mg/kg
same,dose with all animals dead,[7],32 mg/kg
same,LD50,[8],65 mg/kg
same,dose with all animals alive,[9],58 mg/kg
same,dose with all animals dead,[9],70 mg/kg
same,LD50,[10],30 mg/kg
Metastin[45-54] [reference compound],Cell Migration towards 10% FBS (%),[4]; [12],53%
same,"concentration needed for comparable inhibition of migration, times greater than PICM57",[4]; 10 nM Metastin[45-54] vs. 10 fM PICM57,"1,000 times"
same,Cell Migration towards 10% FBS (%),[4]; [13],56%
same,Cell Migration towards 10% FBS (%),[4]; [14],100%
same,Cell Migration towards 10% FBS (%),[4]; [15],83%
same,Cell Migration towards 10% FBS (%),[4]; [16],73%
same,VEGF-dependent tubule-forming activity (%),[1]; 10 pM peptide,63%
same,VEGF-dependent tubule-forming activity (%),[1]; 10 nM peptide,65%
same,VEGF-dependent tubule-forming activity (%),[1]; 10 fM peptide,90%
same,reduction of binding of fluorescinated formyl-Nle-Leu-Phe-Nle-Tyr-Lys to the cell surface,[11],does not modify
